Legend:
[1] = 4-week GLP toxicity study in rat; format: in vivo; conditions: for AUC(0-t): 50 mg/kg, 50 mg/kg BID
Protocol: In the 4-week GLP toxicity study in rat, animals received 0, 25, 50, and 90 mg/kg BID HM06-01/TAS0953-01 by oral gavage. In the high dose of 90 mg/kg BID group, test item-related mortality was observed: 3 females were found dead or were prematurely sacrificed for ethical reasons (severe clinical signs like decreased activity, abnormal respiratory rate and erected fur) from Day 10 to Day 14. At necropsy, discolorations of the lungs were generally observed, histologically correlated with adverse moderate to marked inflammatory changes in the lungs (alveolar/perivascular inflammation, macrophages aggregates, alveolar oedema/hemorrhage). One additional female (satellite) was found dead on Day 7 before dosing. However, in absence of clinical sign and of abnormality at necropsy, the relationship with the test item administration was considered doubtful.

[2] = 4-week GLP toxicity study in dog; format: in vivo; conditions: for AUC(0-t): beagle, dog, in vivo, po, 30 mg/kg, 30 mg/kg BID
Protocol: In the 4-week GLP toxicity study in dog, animals received 0, 15, 30, and 45 mg/kg BID HM06-01/TAS0953-01 by oral gavage for 4 consecutive weeks followed by 2-week recovery period. In the high dose of 45 mg/kg BID group, test item-related mortality was observed: 2 males were prematurely sacrificed on Day 17 and Day 18 for ethical reasons (severe clinical signs associated with a significant body weight loss). The main cause of death was the mild to moderate multifocal subacute inflammation with alveolar or bronchioalveolar distribution, accompanied in one male with alveolar foreign body granulomas. In the other male, minimal pancreatic acinar vacuolation/apoptosis with prostatic acinar apoptosis were noted, for which the relationship with test item cannot be excluded.

[3] = Respiratory system, 4-week GLP study; format: in vivo, rat; conditions: 25, 50 and 90 mg/kg BID, week 4
Protocol: The effect of HM06-01/TAS0953-01 on the respiratory system was also investigated after repeated administration with HM06-01/TAS0953-01 at 25, 50 and 90 mg/kg BID in the 4-week GLP study in rats further described in Example 8. Each group comprised 5 animals/group/sex.

[4] = Proconvulsant and anticonvulsant effects (pentylenetetrazole)
[5] = ECG and blood pressure, 2-week toxicology GLP study; format: in vivo, dog; conditions: for mean arterial blood pressure: high dose females
Protocol: The effect of HM06-01/TAS0953-01 on the ECG was investigated in the 2-week toxicology GLP study in dog as described above on Day 12. […] Heart rate and ECG were also not affected at all dose levels tested. […] At +8 h, arterial blood pressure had returned to control/baseline levels. Although this decrease was not statistically significant versus control, it was consistent and noticeable enough to be considered test item related. Nevertheless, since the extent of the change was limited and present only in the high dose females, and as this decrease in blood pressure had no negative impact on the animals' health, it was considered as non-adverse.

[6] = ECG, 4-week toxicology GLP study; format: in vivo, dog
Protocol: The effect of HM06-01/TAS0953-01 on the ECG was also investigated in the 4-week toxicology GLP study in dog as described above (and further described in Example 8) on week 1 (Day 2), week 4 (Day 23) and at the end of the 2-week recovery period. […] Whereas, on Day 23, no test item-related effects were noted on electrocardiographic parameters at 15 and 30 mg/kg BID in males. […] These electrocardiographic effects were no longer observed at the end of the 2 week recovery period. In addition, there were no abnormalities in electrocardiogram rhythm and waveforms on Day 2 and Day 23, and at the end of the recovery period.

[7] = CNS symptoms and neurotoxicity (Fluoro-Jade C, ATF3) in dog toxicity studies; format: in vivo
Protocol: In order to evaluate the potential neurotoxic effect of HM06-01, Fluoro-Jade C staining was performed on nine different brain areas (i.e., frontal pole, optic chiasm, infundibulum, mammillary bodies, base of third cranial nerve, anterior portion of pons and occipital pole section, cerebellum and medulla oblongata) of control dogs and dogs treated with 45 mg/kg BID HM06-01/TAS0953-01 (samples were taken from the 2-week toxicity study in dogs). In addition, ATF3 immunostaining was performed only on one control and one high dose dog treated with 45 mg/kg BID, in order to validate with an alternative method, the absence of any signs of neuronal degeneration or suffering.

[8] = tested on: cell line from a patient who acquired resistance to RXDX-105 (KIF5B-RET fusion); test: Growth inhibition, RXDX-105-resistant cell line; format: cell-based; conditions: Homo sapiens; RXDX-105-resistant, KIF5B-RET; read-out: IC50 growth inhibition

SMILES: COCc1ccc(NC(=O)c2c(C#CCN3CCOCC3)n(C3(C)CC3)c3ncnc(N)c23)cc1 [HM06-01/TAS0953-01, 4-amino-N-(4-(methoxymethyl)phenyl)-7-(1-methylcyclopropyl)-6-(3-morpholinoprop-1-yn-1-yl)-7H-pyrrolo[2,3-d]pyrimidine-5-carboxamide]
- test item-related mortality ([1]; 90 mg/kg BID, Day 10 to Day 14): 3 females
- decrease of body weight ([1]; 90 mg/kg BID, both sexes): 10%
- severely toxic dose 10 (STD 10) ([1]; 4-week, oral gavage): 50 mg/kg BID
- ophthalmology ([1]; 4 weeks oral BID): no change in ophthalmology
- systemic exposure vs dose ([1]; 25-90 mg/kg BID): approximately dose proportional manner
- body weight ([1]; 25 and 50 mg/kg BID): no effect on body weight
- systemic accumulation ([1]; Day 28): no systemic accumulation
- clinical chemistry, AST and ALT ([1]; both sexes): dose-dependent increase in AST and ALT
- hematology, reticulocytes ([1]; both sexes): dose-dependent increase in reticulocytes
- urine protein concentration ([1]; both sexes): dose-dependent increase in urine protein concentration
- microscopic findings ([1]; end of dosing period): inflammatory microscopic findings were noted in the lungs
- AUC(0-t) ([1]; female, rat, in vivo, po, Day 1, females): 37200 ng·h/mL
- AUC(0-t) ([1]; female, rat, in vivo, po, Day 28, females): 74300 ng·h/mL
- AUC(0-t) ([1]; male, rat, in vivo, po, Day 1, males): 50300 ng·h/mL
- AUC(0-t) ([1]; male, rat, in vivo, po, Day 28, males): 73000 ng·h/mL
- Tmax ([1]; rat, in vivo, po, Day 1, after the first daily dose): 7 h
- Tmax ([1]; rat, in vivo, po, Day 28, after the first daily dose): 1 h
- half-life ([1]; rat, in vivo, po, after the second daily dose, when estimable): 2.03 to 3.67 h
- test item-related mortality ([2]; 45 mg/kg BID, Day 17 and Day 18): 2 males
- body weight loss ([2]; 45 mg/kg BID, Male No. 642, day 17): −12%
- body weight loss ([2]; 45 mg/kg BID, Male No. 644, day 15): −25%
- highest non severely toxic dose (HNSTD) ([2]; 4-week, oral gavage): 30 mg/kg BID
- ophthalmology, urinalysis, coagulation, clinical chemistry ([2]; 4 weeks oral BID): no change in ophthalmology, urinalysis and on coagulation and clinical chemistry parameters
- hematology, total white blood cell count ([2]; both sexes): increase in total white blood cell count
- microscopic findings ([2]; end of dosing period): inflammatory microscopic findings in the lungs
- AUC(0-t) ([2]; female, Day 1, females): 29200 ng·h/mL
- AUC(0-t) ([2]; female, Day 28, females): 29100 ng·h/mL
- dose at which test item-related clinical signs were noted ([2]; from Day 1): ≥ 15 mg/kg BID
- body weight ([2]; low dose): no effect on body weight
- AUC(0-t) ([2]; male, Day 1, males): 21400 ng·h/mL
- AUC(0-t) ([2]; male, Day 28, males): 22300 ng·h/mL
- respiratory parameters [3]: Neither toxicologically relevant effects in respiratory parameters were observed at week 4
- proconvulsant activity ([4]; 30, 100 and 200 mg/kg oral, 1 hour prior to 25 mg/kg PTZ): did not demonstrate any proconvulsant activity
- anticonvulsant effect, total number of convulsions ([4]; 100 and 200 mg/kg oral, pentylenetetrazole): decrease in the total number of convulsions
- QT prolongation ([5]; 15, 30 and 45 mg/kg BID, Day 12): No evidence of QT prolongation
- heart rate and ECG ([5]; all dose levels tested): not affected
- mean arterial blood pressure ([5]; 1 hour after the second daily dose, vehicle 115): 93 mmHg
- mean arterial blood pressure ([5]; 5 hours after the first daily dosing, vehicle 127): 91 mmHg
- ECG effects ([6]; Day 2, two hours after second daily dose, 15, 30 and 45 mg/kg BID): no effects
- prolongation of Fridericia and Van der Water corrected QTc interval versus control ([6]; Day 23, females, 15, 30 and 45 mg/kg): up to 8%
- heart rate ([6]; Day 23, males, 45 mg/kg BID): slight increase in heart rate
- neuronal degeneration (Fluoro-Jade C, ATF3) ([7]; 45 mg/kg BID, 2-week toxicity study, brain areas): no evidence of any neuronal degeneration
- dose at which CNS symptoms were seen ([7]; after the first administration in PK studies): ≥ 5 mg/kg BID
- dose at which CNS symptoms were seen ([7]; after the first daily dose, routine clinical observations, 2-week and 4-week toxicity studies): ≥ 15 mg/kg BID

SMILES: COc1cc2nccc(Oc3ccc(NC(=O)C4(C(=O)Nc5ccc(F)cc5)CC4)cc3)c2cc1OC [cabozantinib, reference compound]
- IC50 [8]: 340 nM

Source: patent US20240000791A1, “Methods of Using 4-Amino-N-[4-(Methoxymethyl)Phenyl]-7-(1-Methylcyclopropyl)-6-(3-Morpholinoprop-1-YN-1-YL)-7H-Pyrrolo[2,3-D]Pyrimidine-5-Carboxamide for the Treatment of Tumors” (Helsinn Healthcare SA, priority 2020, published 2024)
